From PubChem BioAssay AID1963971 (Molecular Pharmacology Branch, DTP, NCI, 2024)

System: 953936-095-R-J2-PDC spheroids with HUVEC/MSC, viability
Experiment: Anticancer human tumor 953936-095-R-J2-PDC patient-derived cervical squamous cell carcinoma cell line growth inhibition [PI3K]
Details: for IC50: curve of first compound; for viability, T/C: stronger effect = lower value
How it was run: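 Stroma-containing spheroids: tumor line, pooled-donor HUVEC, hMSC. Treatments: targeted agents with PI3K inhibitors. Dosing: clinically relevant, half-log spacing, 10 microM ceiling without known Cmax. Read-out: cell viability.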

[1] = second compound 0.00316 µM, first compound 0.0316 µM
[2] = second compound 0.00316 µM, first compound 0.1 µM
[3] = second compound 0.01 µM, first compound 0.0316 µM
[4] = second compound 0.01 µM, first compound 0.1 µM
[5] = second compound 0.0316 µM, first compound 0.0316 µM
[6] = second compound 0.0316 µM, first compound 0.1 µM
[7] = second compound 0.1 µM, first compound 0.0316 µM
[8] = second compound 0.1 µM, first compound 0.1 µM
[9] = second compound 0.316 µM, first compound 0.0316 µM
[10] = second compound 0.316 µM, first compound 0.1 µM
[11] = second compound 1 µM, first compound 0.0316 µM
[12] = second compound 1 µM, first compound 0.1 µM
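Note: spheroids exposed to compounds for seven days before read-out.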

CC(C)n1nc(-c2ccc3oc(N)nc3c2)c2c(N)ncnc21 + COc1c(OCCCN2CCOCC2)ccc2c3n(c(=NC(=O)c4cnc(N)nc4)nc12)CCN3 was tested, and the IC50 (second compound 0.00316 µM) was 18.9 nM, the IC50 (second compound 0.01 µM) was 10.2 nM and the IC50 (second compound 0.0316 µM) was < 0.316 nM. For the same compound, the IC50 (second compound 0.1 µM) was < 0.316 nM, the IC50 (second compound 0.316 µM) was < 0.316 nM and the IC50 (second compound 1 µM) was < 0.316 nM. It also gave a viability, T/C (second compound 0.00316 µM, first compound 0.000316 µM) of 79%, a viability, T/C (second compound 0.00316 µM, first compound 0.001 µM) of 86.9% and a viability, T/C (second compound 0.00316 µM, first compound 0.00316 µM) of 84%. For the same compound, the viability, T/C (second compound 0.00316 µM, first compound 0.01 µM) was 60.3%, the viability, T/C [1] was 40.3% and the viability, T/C [2] was 14.4%. It also gave a viability, T/C (second compound 0.01 µM, first compound 0.000316 µM) of 66.7%, a viability, T/C (second compound 0.01 µM, first compound 0.001 µM) of 64.8% and a viability, T/C (second compound 0.01 µM, first compound 0.00316 µM) of 60.1%. It also gave a viability, T/C (second compound 0.01 µM, first compound 0.01 µM) of 51.5%, a viability, T/C [3] of 27.8% and a viability, T/C [4] of 11.2%. The viability, T/C (second compound 0.0316 µM, first compound 0.000316 µM) was 38.8%, the viability, T/C (second compound 0.0316 µM, first compound 0.001 µM) was 36% and the viability, T/C (second compound 0.0316 µM, first compound 0.00316 µM) was 31.5%. The viability, T/C (second compound 0.0316 µM, first compound 0.01 µM) was 23.5%, the viability, T/C [5] was 16.2% and the viability, T/C [6] was 7.15%. The viability, T/C (second compound 0.1 µM, first compound 0.000316 µM) was 18.2%, the viability, T/C (second compound 0.1 µM, first compound 0.001 µM) was 15.9% and the viability, T/C (second compound 0.1 µM, first compound 0.00316 µM) was 14.9%. It also gave a viability, T/C (second compound 0.1 µM, first compound 0.01 µM) of 11.2%, a viability, T/C [7] of 8.1% and a viability, T/C [8] of 4.33%. The viability, T/C (second compound 0.316 µM, first compound 0.000316 µM) was 6.68%, the viability, T/C (second compound 0.316 µM, first compound 0.001 µM) was 6.67% and the viability, T/C (second compound 0.316 µM, first compound 0.00316 µM) was 5.27%. The viability, T/C (second compound 0.316 µM, first compound 0.01 µM) was 4.78%, the viability, T/C [9] was 3.56% and the viability, T/C [10] was 2.2%. The viability, T/C (second compound 1 µM, first compound 0.000316 µM) was 1.45%, the viability, T/C (second compound 1 µM, first compound 0.001 µM) was 1.56% and the viability, T/C (second compound 1 µM, first compound 0.00316 µM) was 1.21%. For the same compound, the viability, T/C (second compound 1 µM, first compound 0.01 µM) was 1.41%, the viability, T/C [11] was 1.36% and the viability, T/C [12] was 1.27%.

For CC1(C)CCC(CN2CCN(c3ccc(C(=O)NS(=O)(=O)c4ccc(NCC5CCOCC5)c([N+](=O)[O-])c4)c(Oc4cnc5[nH]ccc5c4)c3)CC2)=C(c2ccc(Cl)cc2)C1 + COc1c(OCCCN2CCOCC2)ccc2c3n(c(=NC(=O)c4cnc(N)nc4)nc12)CCN3, the IC50 (second compound 0.00316 µM) was 7150 nM, the IC50 (second compound 0.01 µM) was 5430 nM and the IC50 (second compound 0.0316 µM) was < 31.6 nM. For the same compound, the IC50 (second compound 0.1 µM) was < 31.6 nM, the IC50 (second compound 0.316 µM) was < 31.6 nM and the IC50 (second compound 1 µM) was < 31.6 nM. For the same compound, the viability, T/C [1] was 82%, the viability, T/C [2] was 84.2% and the viability, T/C (second compound 0.00316 µM, first compound 0.316 µM) was 93.8%. The viability, T/C (second compound 0.00316 µM, first compound 1 µM) was 96.2%, the viability, T/C (second compound 0.00316 µM, first compound 3.16 µM) was 97.5% and the viability, T/C (second compound 0.00316 µM, first compound 10 µM) was 33.2%. The viability, T/C [3] was 69.6%, the viability, T/C [4] was 78.1% and the viability, T/C (second compound 0.01 µM, first compound 0.316 µM) was 68%. It also gave a viability, T/C (second compound 0.01 µM, first compound 1 µM) of 74.7%, a viability, T/C (second compound 0.01 µM, first compound 3.16 µM) of 70.5% and a viability, T/C (second compound 0.01 µM, first compound 10 µM) of 26.6%. It also gave a viability, T/C [5] of 42%, a viability, T/C [6] of 50% and a viability, T/C (second compound 0.0316 µM, first compound 0.316 µM) of 41.5%. For the same compound, the viability, T/C (second compound 0.0316 µM, first compound 1 µM) was 40.1%, the viability, T/C (second compound 0.0316 µM, first compound 3.16 µM) was 44.1% and the viability, T/C (second compound 0.0316 µM, first compound 10 µM) was 21.6%. The viability, T/C [7] was 18.2%, the viability, T/C [8] was 17.8% and the viability, T/C (second compound 0.1 µM, first compound 0.316 µM) was 18.3%. It also gave a viability, T/C (second compound 0.1 µM, first compound 1 µM) of 17.1%, a viability, T/C (second compound 0.1 µM, first compound 3.16 µM) of 15.6% and a viability, T/C (second compound 0.1 µM, first compound 10 µM) of 6.6%. It also gave a viability, T/C [9] of 6.6%, a viability, T/C [10] of 7.22% and a viability, T/C (second compound 0.316 µM, first compound 0.316 µM) of 7.33%. It also gave a viability, T/C (second compound 0.316 µM, first compound 1 µM) of 5.61%, a viability, T/C (second compound 0.316 µM, first compound 3.16 µM) of 5.63% and a viability, T/C (second compound 0.316 µM, first compound 10 µM) of 3.88%. It also gave a viability, T/C [11] of 1.61%, a viability, T/C [12] of 1.39% and a viability, T/C (second compound 1 µM, first compound 0.316 µM) of 1.49%. It also gave a viability, T/C (second compound 1 µM, first compound 1 µM) of 1.3%, a viability, T/C (second compound 1 µM, first compound 3.16 µM) of 1.52% and a viability, T/C (second compound 1 µM, first compound 10 µM) of 0.86%.
